# According to a melting point compilation (Tetko et al.; mined from patent text by program, amines drawn as free bases though some values may be those of a salt):
row,SMILES,melting point [°C]
1,CC(=O)N(C)[C@H]1CCN(C(=O)c2ccc(-c3[nH]nc4c3C(=O)c3c(NC(=O)NN5CCOCC5)cccc3-4)s2)C1,> 300
2,O=C(O)CNC(=O)C(CS)Cc1ccc2c(c1)OCO2 (racemic),94
3,COc1cc(OS(C)(=O)=O)ccc1C1=NC2=NC=NC(=O)C2=N1,288 to 291
4,CN(C)S(=O)(=O)c1ccc2c(c1)S(=O)(=O)NC1CCCN21 (stereo not drawn),240 to 243
5,COc1ccc2c(c1)NC(=O)C(N=[N+]=[N-])CC2 (stereo not drawn),136 to 138
6,CS(=O)(=O)Nc1nc(CCCN2CCN(C(c3ccccc3)c3ccccc3)CC2)cs1,181 to 183
7,COC(=O)C1=C(C)NC(C)=C(c2nc(C)no2)C1c1cccc([N+](=O)[O-])c1 (stereo not drawn),221 to 222
8,CCCCc1nnc2c(Cl)nc3ccccc3n12,144 to 146
9,Clc1ccc2[nH]c(=Nc3ccccc3)n3nc(-c4ccco4)nc3c2c1,231 to 233
10,CCN(CC)Cc1ccnc(F)c1C=NO,97 to 99
11,CCCN(CCC)c1c([N+](=O)[O-])cc(C(C)=O)cc1[N+](=O)[O-],71 to 72
12,O=[N+]([O-])C(CN1CCN(c2ccccc2)CC1)c1ccccc1 (stereo not drawn),76
13,CC1(c2ccc(-c3ccccc3)cc2)CC(=O)NN1 (stereo not drawn),191 to 192
14,c1ccc2c(CSCc3cccc4ccccc34)cccc2c1,104 to 106
15,Cn1c(=O)c2c(Br)cccc2n2cnc(-c3noc(C4CC4)n3)c12,207
16,O=c1ccn(-c2cccc(C(F)(F)F)c2)nc1-c1conc1-c1ccccc1,217 to 219
17,CCCCc1cc(=O)c(C(=O)OCC)cn1Cc1ccc(-c2ccccc2-c2nnn[nH]2)cc1,119 to 120
18,CCCOC1(OC)C=CC=C(N2CCC(c3noc4cc(F)ccc34)CC2)C1O (stereo not drawn),134 to 135
19,CCCn1cc2c(C3C(=O)Nc4ccc(Br)cc43)nc(NCCC(F)(F)F)nc2n1 (stereo not drawn),> 300
20,CCOC(=O)c1ccc(-c2ccc(-c3ccc(O)cc3)c(-c3ccc4c(c3)C(C)(C)CCC4(C)C)c2)cc1,177 to 179
21,CCOC1=C(CCCCCCC(=O)O)C(=O)CC1,65 to 66
22,CC(=O)OCC(=O)C1C(C)CC2C3CC(Cl)C4=CC(=O)C=CC4(C)C3C(O)CC21C (stereo not drawn),208
23,O=C(c1ccccc1)N1Cc2c(-c3noc(C4CC4)n3)ncn2-c2ccccc21,198 to 199
24,Cc1cc(N2C(=O)NC(C)(C)C2=O)ccc1[N+](=O)[O-],177 to 178
25,Nc1ccc(-c2ccncc2)cc1[N+](=O)[O-],234 to 238

row,SMILES,melting point [°C]
1,Cc1nc2c(N)nc3ccccc3c2n1CCOCCN,155 to 157
2,Cn1c([N+](=O)[O-])cnc1-c1nnc2ccc(N=CNC3CCCCC3)nn12,198 to 200
3,CC(C)(C)c1ccc(C(=O)Cc2ccncc2)cc1,75 to 76
4,COC(=O)CCc1cc(S(C)(=O)=O)cc(-c2nc(=O)c3ccc(Cl)cc3s2)n1,203 to 204
5,CCOC(=O)Cc1nn(Cc2nc3ccccc3n2C)c(=O)c2ccccc12,118
6,CCOC(=O)C1=CC(OCC)(C(C)C)N(c2ccc(Cl)cc2Cl)N1 (stereo not drawn),105 to 110
7,COCOc1ccccc1-c1cc(-c2cccc(C(=O)OC)c2)c(C#N)c(NC(=O)c2cccs2)n1,159 to 160
8,N#Cc1ccc(CN(c2ccc(O)cc2)n2ccnc2)cc1,150
9,O=C(NC(=O)c1c(Cl)cccc1Cl)Nc1ccc(Br)cn1,228 to 230
10,O[C@@H]1CN=C(c2ccccc2)O[C@H]1c1ccccc1 (racemic),135
11,COCCNC(=O)c1cccc(-c2cccc3cc(Cc4cccc(S(C)(=O)=O)c4)sc23)c1,131 to 132
12,CC[C@H](Nn1c([C@H](C)OC)nnc1[C@H](C)OC)C(OC)OC,67 to 68
13,O=C1COc2ccc(CO)cc2N1,186 to 187
14,FC(F)(F)c1cc(N=NNc2cc(C(F)(F)F)cc(C(F)(F)F)c2)cc(C(F)(F)F)c1,137 to 138
15,COc1cc2c(cc1-c1cccc(F)n1)-c1c(-c3cncs3)c3c(n1CC2)C(=O)N(C(C)(C)C)CCOC3,232 to 234
16,COc1ccc(N2CCN(c3c(C)c(C)c4c(c3C)C(=O)C(C)(C)O4)CC2)cc1OC,153 to 154
17,COC(=O)C1=C(C)Nc2nc[nH]c(=O)c2C1c1cccc([N+](=O)[O-])c1 (stereo not drawn),289 to 290
18,CCC1Nc2cc(C)cc(C)c2N1c1ccc(CCNC(=O)NS(=O)(=O)c2ccc(C)cc2)cc1 (stereo not drawn),108 to 112
19,COC(=O)C1=Cc2cc(-c3ccc(N4CCOCC4)cc3)ccc2S(=O)(=O)CC1,215 to 217
20,C#CCNc1nc2cc3ccccc3cc2nc1Cl,169 to 172
21,Cc1cccc(C)c1N(CCCC(=O)NCC(=O)O)C(=O)c1ccc(Cl)cc1,141 to 142
22,CC(C)OC(=O)c1cc(-n2c(=O)c3c(n(C)c2=O)CCCC3)c(F)cc1Cl,113 to 115
23,Cc1cc(C(=O)Nc2ccc(S(=O)(=O)C(F)(F)F)cc2Cl)c(O)c(C(C)(C)C)c1,209 to 212
24,O=C(CSCCOc1ccccc1)c1ccc2[nH]c3ncc(Cl)cc3c2c1,167 to 168
25,COc1cc(C2C3=C(COC3=O)N(C)c3cc4c(cc32)OCO4)cc(OC)c1OC (stereo not drawn),226

row,SMILES,melting point [°C]
1,NCCNC(=O)CNC(=O)Cc1ccccc1,132 to 137
2,CN1CCN(c2ccc3cn[nH]c3n2)CC1,196 to 197
3,CCn1c2ccccc2c2cc(C=C(C#N)c3ccc(C(F)(F)F)cc3)ccc21,164 to 165
4,COC(OC)c1cc(C)nc(N)n1,69 to 71
5,C#CCc1nc(-c2ccc(C)cc2)oc1C,65 to 68
6,O=c1[nH]c(=O)n(C2CC(Cl)C(CBr)O2)cc1C=CBr (stereo not drawn),149
7,CCCC=Cc1c(C(C)C)nc(C(C)C)c(CO)c1-c1ccc(C)cc1,72 to 75
8,COc1ccc(/C=C(\C#N)c2cccc(Cl)c2)cc1OC1CCCC1,98 to 100
9,CSC1=C(C#N)C(c2ccc(N(C)C)cc2)(c2cccnc2)C(=O)N1CCCN(C)C (stereo not drawn),90 to 91
10,COc1ccc(N2CCN(Cc3n[nH]c4c3CCc3ccccc3-4)CC2)cc1,207 to 208
11,CC(Oc1ccc(Oc2cnc3cc(F)ccc3n2)cc1)C(=O)Nc1ccc(OC(F)(F)F)cc1 (stereo not drawn),140 to 142
12,O=C(Nc1ccccc1)C1=C(C(F)(F)F)S(=O)(=O)CCS1(=O)=O,105 to 108
13,CCOCN1C2=C(C(=O)CCC2)C(c2cccc([N+](=O)[O-])c2)C2=C1CCCC2=O,222
14,O=c1[nH]c2ccccc2n1CCCCN1CCC(O)(c2ccc(Cl)cc2)CC1,161
15,CCOC(=O)c1sc(N2CCNC2=O)nc1C,197 to 199
16,CSCc1cc(=O)c2ccc(OCc3ccccc3)c(C)c2o1,110 to 114
17,CCCCC(CC)COc1ccc(-c2nc(-c3ccc(OCC(CC)CCCC)cc3)nc(-c3ccc(OCC(CC)CCCC)cc3O)n2)cc1 (stereo not drawn),93 to 95
18,Cc1cc(Cl)cc2c1OCCCC2NS(C)(=O)=O (stereo not drawn),154 to 156
19,CCOC(=O)C(CC)Nc1ccc2ccccc2c1 (stereo not drawn),81 to 83
20,COc1ccc(C(=O)Nc2cc([N+](=O)[O-])ccc2Cl)cc1OC,231 to 232
21,c1ccc(C2CC(n3cncn3)c3ccccc3N2)cc1 (stereo not drawn),162 to 164
22,COC(=O)COc1ccc(C(=O)NN(C)C(=O)c2ccc(C(N)=S)cc2)cc1,169 to 170
23,O=C(Nc1nc(C(Cl)(Cl)Cl)ns1)c1ccccc1F,149
24,CC1(CN2CCC(n3c(=O)[nH]c4ccccc43)CC2)OCc2ccccc2-n2cccc21 (stereo not drawn),199 to 201
25,CN(C)C(=O)CCO[C@H]1CC[C@H](N(C)S(=O)(=O)c2ccc(C(F)(F)F)cc2)CC1,88

row,SMILES,melting point [°C]
1,CCOC(=O)COc1c(OC)cc(Cl)c2c1CN1CCc3cc(OC)c(OCc4ccccc4)cc3C1C2 (stereo not drawn),134
2,COC(=O)c1ccc2c(c1)CN(c1c(F)cc3c(=O)c(C(=O)O)cn(-c4ccc(F)cc4F)c3c1F)C2,248 to 251
3,Cc1ccc(O[C@@H](Cc2ccc(O)cc2)C(=O)N2C(=O)OC[C@@H]2Cc2ccccc2)cc1,135 to 136
4,NCC1CCc2[nH]c3cc(Cl)c(F)cc3c2C1 (stereo not drawn),180 to 181
5,CCC(=Nc1ccc2c(c1)C(=O)c1ccc(N=C(CC)N3CCOCC3)cc1C2=O)N1CCOCC1,220 to 223
6,Nc1cccc(C(=O)O)c1S,255 to 258
7,CCN1CCCOc2ccc(Nc3ncc(Cl)c(Nc4ccsc4C(=O)NC)n3)cc21,153 to 155
8,CC12CCCc3cc(Nc4ccc(C(=O)O)cc4)cc(c31)CCC2,232 to 234
9,COC(=O)c1cc(C#N)ccc1Cl,100 to 103
10,CC(C)c1ocnc1C(=O)O,136 to 137
11,Clc1ccc(C2(Cn3cncn3)CC(Cl)CO2)c(Cl)c1 (stereo not drawn),97
12,CCNC(=O)c1cnc(SC)nc1Nc1ccc2[nH]ncc2c1,252 to 254
13,CC=CCn1c(C)c(C)c2cnnc(OCc3ccc(Cl)cc3Cl)c21,133 to 134
14,COc1ccc(C(=O)Nc2c(Cl)cncc2Cl)c2c3cc([N+](=O)[O-])ccc3n(C)c12,> 250
15,CSC(=NC#N)N[C@@H]1c2cc(S(C)(=O)=O)ccc2OC(C)(C)[C@H]1O (relative stereo),219 to 220
16,COc1c2c(c(OC)c(OC)c1OC)CC(CCCCOc1ccc(C(=O)N3CCOCC3)cc1)C2,64 to 72
17,CC1NC(=O)NN=C1c1ccc(C#N)cc1 (stereo not drawn),268 to 269
18,Cc1cc2nc(-c3cc(C(F)(F)F)nn3-c3ccc(S(C)(=O)=O)cc3)sc2cc1F,193 to 194
19,C[C@H](C#Cc1ccc(COCc2ccc(F)cc2)s1)N(O)C(N)=O,90 to 91
20,O=C(Nc1ccc(-c2nnn[nH]2)cc1)C(F)(F)C(F)(F)C(F)(F)F,266 to 268
21,CN=C(NC#N)NCCCSCc1nsc(NC(=N)N)n1,117 to 120
22,CCCn1c(C)c2c(c1C)C(=O)C(C)=C(C)C2=O,165 to 167
23,Cc1ccccc1C(=O)Nc1ccc(-n2nc(C3CC3)cc2C2CC2)c(F)c1,105 to 107
